According to patent US20230312587A1, “PTERIDINONE COMPOUNDS AND USES THEREOF” (Vertex Pharmaceutical Incorporated, priority 2018, published 2023):
pIC50: −log10 of the molar value.

The compounds below were run on β-catenin-TCF-mediated reporter transcription activity in Colo 205 cells (assay: Colo 205 reporter assay (TCF/LEF luciferase)). Conditions: Homo sapiens, COLO 205, 5 h, Colo 205 TCF/LEF luciferase reporter, five hours after addition of compound; read-out: TCF reporter Colo205 IC50.
Format: cell-based
Procedure, shortened: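 Luciferase signal from a TCF/LEF-driven reporter, stably integrated in Colo 205 colon cancer cells, was measured 5 h after compound addition.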

Row | SMILES | pIC50
1 | Cc1nc(NCc2cnn(Cc3ccc(C(F)(F)F)nc3)c2)nc2c1NC(=O)C1(CC1)N2C [Compound 239, 4′,8′-dimethyl-2′-(((1-((6-(trifluoromethyl)pyridin-3-yl)methyl)-1H-pyrazol-4-yl)methyl)amino)-5′,8′-dihydro-6′H-spiro[cyclopropane-1,7′-pteridin]-6′-one] | > 6.52
2 | C[C@H]1C(=O)Nc2cnc(NCc3cnn(Cc4ncc(F)cn4)c3)nc2N1C [Compound 165, (7S)-2-(((1-((5-fluoropyrimidin-2-yl)methyl)-1H-pyrazol-4-yl)methyl)amino)-7,8-dimethyl-7,8-dihydropteridin-6(5H)-one] | ≤ 5.30
3 | Cc1nc(N[C@H]2C[C@@H](COc3cnc(C#N)c(F)c3)C2)nc2c1NC(=O)[C@H](C(C)C)N2C [Compound 694, 3-fluoro-5-((cis-3-(((S)-7-isopropyl-4,8-dimethyl-6-oxo-5,6,7,8-tetrahydropteridin-2-yl)amino)cyclobutyl)methoxy)picolinonitrile] | > 6.52
4 | COC1(C2C(=O)Nc3c(C)nc(N[C@H]4C[C@H](Oc5ccc(C(F)(F)F)nc5)C4)nc3N2C)CCC1 (relative stereo) [Compound 671, 7-(1-methoxycyclobutyl)-4,8-dimethyl-2-((trans-3-((6-(trifluoromethyl)pyridin-3-yl)oxy)cyclobutyl)amino)-7,8-dihydropteridin-6(5H)-one] | > 6.52
5 | Cc1nc(NCc2cnn(Cc3ccccc3C(C)C)c2)nc2c1NC(=O)[C@H](C)N2C [Compound 78, (7S)-2-(((1-(2-isopropylbenzyl)-1H-pyrazol-4-yl)methyl)amino)-4,7,8-trimethyl-7,8-dihydropteridin-6(5H)-one] | > 6.52
6 | Cc1cc(C(F)(F)F)cc(OC[C@H]2C[C@@H](Nc3nc(C)c4c(n3)N(C)[C@@H](C)C(=O)N4)C2)n1 [Compound 365, (7S)-4,7,8-trimethyl-2-((cis-3-(((6-methyl-4-(trifluoromethyl)pyridin-2-yl)oxy)methyl)cyclobutyl)amino)-7,8-dihydropteridin-6(5H)-one] | > 6.52
7 | Cc1nc(N[C@H]2C[C@H](n3ccc(C(F)(F)F)n3)C2)nc2c1NC(=O)[C@H](C(C)C)N2C [Compound 730, (S)-7-isopropyl-4,8-dimethyl-2-((trans-3-(3-(trifluoromethyl)-1H-pyrazol-1-yl)cyclobutyl)amino)-7,8-dihydropteridin-6(5H)-one] | 5.30 to 6.00
8 | COc1c(F)cc(O[C@H]2C[C@H](Nc3nc(C)c4c(n3)N(C)[C@@H](C)C(=O)N4)C2)cc1F [Compound 287, (7S)-2-((trans-3-(3,5-difluoro-4-methoxyphenoxy)cyclobutyl)amino)-4,7,8-trimethyl-7,8-dihydropteridin-6(5H)-one] | > 6.52
9 | Cc1nc(N[C@H]2CCc3nn(Cc4ccc(C(F)(F)F)nc4)cc32)nc2c1NC(=O)[C@H](C)N2C [Compound 546, (7S)-4,7,8-trimethyl-2-(((S)-2-((6-(trifluoromethyl)pyridin-3-yl)methyl)-2,4,5,6-tetrahydrocyclopenta[c]pyrazol-4-yl)amino)-7,8-dihydropteridin-6(5H)-one] | ≤ 5.30
10 | Cc1nc(NCc2cnn(Cc3ccc(OC(F)(F)F)cc3)c2)nc2c1NC(=O)[C@H](C(C)C)N2C [Compound 467, (S)-7-isopropyl-4,8-dimethyl-2-(((1-(4-(trifluoromethoxy)benzyl)-1H-pyrazol-4-yl)methyl)amino)-7,8-dihydropteridin-6(5H)-one] | > 6.52
11 | Cc1nc(N[C@H]2C[C@@H](Nc3cnc(C(F)(F)F)cn3)C2)nc2c1NC(=O)C1(CCOC1)N2C (relative stereo) [Compound 687, 4′,8′-dimethyl-2′-((cis-3-((5-(trifluoromethyl)pyrazin-2-yl)amino)cyclobutyl)amino)-4,5,5′,8′-tetrahydro-2H,6′H-spiro[furan-3,7′-pteridin]-6′-one] | 6.00 to 6.52
12 | Cc1nc(N[C@H]2C[C@H](Oc3ccc(F)cc3F)C2)nc2c1N(C)C(=O)[C@H](C)N2C [Compound 296, (7S)-2-((trans-3-(2,4-difluorophenoxy)cyclobutyl)amino)-4,5,7,8-tetramethyl-7,8-dihydropteridin-6(5H)-one] | > 6.52
13 | Cc1nc(NCc2cnn(Cc3ccc(F)cc3C#N)c2)nc2c1NC(=O)[C@H](C)N2C [Compound 64, (7S)-5-fluoro-2-((4-(((4,7,8-trimethyl-6-oxo-5,6,7,8-tetrahydropteridin-2-yl)amino)methyl)-1H-pyrazol-1-yl)methyl)benzonitrile] | > 6.52
14 | Cc1nc(NCc2cnn(Cc3ccc(C(F)(F)F)nc3)c2)nc2c1NC(=O)C1(COC1)N2C [Compound 600, 4′,8′-dimethyl-2′-(((1-((6-(trifluoromethyl)pyridin-3-yl)methyl)-1H-pyrazol-4-yl)methyl)amino)-5′,8′-dihydro-6′H-spiro[oxetane-3,7′-pteridin]-6′-one] | 5.30 to 6.00
15 | Cc1nc(N[C@H]2C[C@@H](NC(=O)NC3CCC(F)(F)CC3)C2)nc2c1NC(=O)[C@H](C(C)C)N2C [Compound 526, 1-(4,4-difluorocyclohexyl)-3-(cis-3-(((S)-7-isopropyl-4,8-dimethyl-6-oxo-5,6,7,8-tetrahydropteridin-2-yl)amino)cyclobutyl)urea] | ≤ 5.30
16 | Cc1nc(NCc2cnn([C@H](C)c3ccc(C(F)(F)F)nc3)c2)nc2c1NC(=O)[C@H](C)N2C [Compound 175, (7S)-4,7,8-Trimethyl-2-(((1-((R)-1-(6-(trifluoromethyl)pyridin-3-yl)ethyl)-1H-pyrazol-4-yl)methyl)amino)-7,8-dihydropteridin-6(5H)-one] | > 6.52
17 | Cc1nc(N[C@H]2C[C@@H](COc3ccc(F)c(F)c3F)C2)nc2c1NC(=O)[C@H](C)N2C [Compound 281, (7S)-4,7,8-trimethyl-2-((cis-3-((2,3,4-trifluorophenoxy)methyl)cyclobutyl)-amino)-7,8-dihydropteridin-6(5H)-one] | > 6.52
18 | Cc1nc(NCc2cnn(Cc3ccc(C(F)(F)F)nc3)c2)nc2c1NC(=O)[C@H](CCO)N2 [Compound 439, (S)-7-(2-hydroxyethyl)-4-methyl-2-(((1-((6-(trifluoromethyl)pyridin-3-yl)methyl)-1H-pyrazol-4-yl)methyl)amino)-7,8-dihydropteridin-6(5H)-one] | ≤ 5.30
19 | Cc1nc(N[C@H]2C[C@H](NS(=O)(=O)c3cc(F)c(F)c(F)c3)C2)nc2c1NC(=O)[C@H](C)N2C [Compound 482, 3,4,5-trifluoro-N-(trans-3-(((S)-4,7,8-trimethyl-6-oxo-5,6,7,8-tetrahydropteridin-2-yl)amino)cyclobutyl)benzenesulfonamide] | ≤ 5.30
20 | Cc1nc(N[C@H]2C[C@H](Nc3ccc(C(F)(F)F)nc3)C2)nc2c1NC(=O)[C@H](C(C)C)N2C [Compound 587, (S)-7-isopropyl-4,8-dimethyl-2-((trans-3-((6-(trifluoromethyl)pyridin-3-yl)amino)cyclobutyl)amino)-7,8-dihydropteridin-6(5H)-one] | 6.00 to 6.52
21 | COc1cc(C(F)(F)F)ncc1Cn1cc(CNc2nc(C)c3c(n2)N(C)[C@@H](C)C(=O)N3)cn1 [Compound 210, (7S)-2-(((1-((4-methoxy-6-(trifluoromethyl)pyridin-3-yl)methyl)-1H-pyrazol-4-yl)methyl)amino)-4,7,8-trimethyl-7,8-dihydropteridin-6(5H)-one] | > 6.52
22 | CC[C@H]1C(=O)Nc2c(C)nc(N[C@H]3C[C@@H](Cn4nccc4C(F)(F)F)C3)nc2N1C [Compound 593, (S)-7-ethyl-4,8-dimethyl-2-((cis-3-((5-(trifluoromethyl)-1H-pyrazol-1-yl)methyl)cyclobutyl)amino)-7,8-dihydropteridin-6(5H)-one] | > 6.52
23 | Cc1nc(N[C@H]2C[C@H](N(C)c3cnc(C(F)(F)F)cn3)C2)nc2c1NC(=O)[C@H](C(C)C)N2C [Compound 655, (7S)-7-isopropyl-4,8-dimethyl-2-((trans-3-(methyl(5-(trifluoromethyl)pyrazin-2-yl)amino)cyclobutyl)amino)-7,8-dihydropteridin-6(5H)-one] | > 6.52
24 | Cc1nc(NC2CN(C(=O)CC3CC(F)(F)C3)C2)nc2c1NC(=O)[C@H](C(C)C)N2C [Compound 606, (S)-2-((1-(2-(3,3-difluorocyclobutyl)acetyl)azetidin-3-yl)amino)-7-isopropyl-4,8-dimethyl-7,8-dihydropteridin-6(5H)-one] | 6.00 to 6.52
25 | C[C@H]1C(=O)Nc2cnc(NCc3ccc(-c4ccc(F)cc4)o3)nc2N1C [Compound 43, (7S)-2-(((5-(4-fluorophenyl)furan-2-yl)methyl)amino)-7,8-dimethyl-7,8-dihydropteridin-6(5H)-one] | ≤ 5.30
26 | Cc1nc(N[C@H]2C[C@H](COc3cc(C(F)(F)F)ccn3)C2)nc2c1NC(=O)[C@H](C)N2C [Compound 369, (7S)-4,7,8-trimethyl-2-((trans-3-(((4-(trifluoromethyl)pyridin-2-yl)oxy)methyl)cyclobutyl)amino)-7,8-dihydropteridin-6(5H)-one] | ≤ 5.30
27 | CNc1ccc(Cn2cc(CNc3nc(C)c4c(n3)N(C)[C@@H](C)C(=O)N4)cn2)cn1 [Compound 10, (7S)-4,7,8-trimethyl-2-(((1-((6-(methylamino)pyridin-3-yl)methyl)-1H-pyrazol-4-yl)methyl)amino)-7,8-dihydropteridin-6(5H)-one] | ≤ 5.30
28 | Cc1nc(NCc2ccc(OC3CCN(c4ccc(F)cc4)C3)nc2)nc2c1NC(=O)[C@H](C)N2C (stereo partly drawn) [Compound 169, (7S)-2-(((6-((1-(4-fluorophenyl)pyrrolidin-3-yl)oxy)pyridin-3-yl)methyl)amino)-4,7,8-trimethyl-7,8-dihydropteridin-6(5H)-one] | > 6.52

Same assay, conditions: Homo sapiens, COLO 205, 5 h, R-isomer at C2 (corresponding to C2 S-isomer); Colo 205 TCF/LEF luciferase reporter, 5 h; read-out: TCF reporter Colo205 IC50

Row | SMILES | pIC50
29 | CCN1C(=O)[C@@H](C)N(CC)c2nc(NCc3cnn(Cc4cc(F)c(F)c(F)c4)c3)ncc21 [Compound I-1349] | > 6.52
30 | CC[C@@H]1C(=O)N(CC)c2cnc(NCc3cnn(Cc4ccc(F)cc4)c3)nc2N1C [Compound I-987] | > 6.52
